Test results published in US20240197714A1, “METHODS FOR THE ADMINISTRATION OF CERTAIN VMAT2 INHIBITORS” (Neurocrine Biosciences, Inc., priority 2021, published 2024).
Where two headings read alike, the source gives them in different places.

Key:
[1] = Phase 1 open-label 2-sequence crossover study, single-dose pharmacokinetics of deutetrabenazine metabolites in healthy subjects; assay type: in vivo, human; settings: for AUC / Cmax / half-life: both sexes, human, oral, plasma; for AUC / Cmax: healthy subjects, single dose deutetrabenazine 24 mg, % CV in parentheses; for half-life: 24 mg; for AUC (% of Total): share of total circulating DHTBZ exposure after single dose deutetrabenazine 24 mg
Description: A phase 1, open-label, 2-sequence crossover study was conducted to evaluate the HTBZ PK profile following administration of valbenazine (40 mg) or deutetrabenazine (24 mg) to a total of 18 healthy male and female subjects.
Subjects received a single dose of valbenazine 40 mg on Day 1 and a single dose of deutetrabenazine 24 mg on Day 16; or received a single dose of deutetrabenazine 24 mg on Day 1 and a single dose of valbenazine 40 mg on Day 16. Valbenazine 40 mg was administered as one 40 mg capsule and deutetrabenazine 24 mg was administered as two 12 mg tablets. Study drug was administered at approximately 0800 hours, approximately 30 minutes after the start of a standard breakfast.
PK parameters were determined using non-compartmental analysis with Phoenix WinNonlin 8.3 software. The in vitro pharmacology of the deuterated HTBZ metabolites was assessed using competitive radioligand binding assays.

[2] = AUSTEDO label; likely similar in CYP2D6 poor metabolizers; cited from earlier work
[3] = metabolites of AUSTEDO, approximate, read-out: half-life (converted)

Compound	AUC [1]	Cmax [1]	half-life [1, 3]	AUC (% of Total) [1]	half-life ([1]; after deutetrabenazine administration, read-out: mean half-life (converted))	increase of exposure when taking a strong CYP2D6 inhibitor [2]
[2H]C([2H])([2H])Oc1cc2c(cc1OC([2H])([2H])[2H])[C@H]1C[C@@H](O)[C@H](CC(C)C)CN1CC2 [[+]-α-DHTBZ]	11 ng·h/mL	1.2 ng/mL	~6 h	2%		
[2H]C([2H])([2H])Oc1cc2c(cc1OC([2H])([2H])[2H])[C@H]1C[C@H](O)[C@H](CC(C)C)CN1CC2 [[+]-β-DHTBZ, (+)-β-3-isobutyl-9,10-di(methoxy-d3)-1,3,4,6,7,11b-hexahydro-2H-pyrido[2,1-a]isoquinolin-2-ol]	176 ng·h/mL	20.4 ng/mL	~5 h	29%	7.7 h	
COc1cc2c(cc1OC)[C@@H]1C[C@H](O)[C@@H](CC(C)C)CN1CC2 [α-DHTBZ]						approximately 3 fold

The next lines start with results.

AUC [1]	Cmax [1]	half-life [1, 3]	AUC (% of Total) [1]	half-life ([1]; after deutetrabenazine administration, read-out: mean half-life (converted))	Compound	increase of exposure when taking a strong CYP2D6 inhibitor [2]
396 ng·h/mL	32.2 ng/mL	~12 h	66%		[2H]C([2H])([2H])Oc1cc2c(cc1OC([2H])([2H])[2H])[C@@H]1C[C@H](O)[C@@H](CC(C)C)CN1CC2 [[−]-α-DHTBZ, (−)-α-3-isobutyl-9,10-di(methoxy-d3)-1,3,4,6,7, 11b-hexahydro-2H-pyrido[2,1-a]isoquinolin-2-ol]	
15.8 ng·h/mL	1.7 ng/mL	~8 h	3%		[2H]C([2H])([2H])Oc1cc2c(cc1OC([2H])([2H])[2H])[C@@H]1C[C@@H](O)[C@@H](CC(C)C)CN1CC2 [[−]-β-DHTBZ, (−)-β-3-isobutyl-9,10-di(methoxy-d3)-1,3,4,6,7,11b-hexahydro-2H-pyrido[2,1-a]isoquinolin-2-ol]	
